Data as given in patent US9207296B2, “Methods and apparatus for pasadena hyperpolarization” (Huntington Medical Research Institutes, priority 2008, dated 2015).
Values joined by “and” are separate entries in the source; they are usually repeats but may differ in a detail not shown here. Equal values may be shown once. Read-outs that look alike come from different tables or passages of the source.

Assays:
[1] = for 13C signal enhancement (nascent): at 4.7 T, relative to thermal polarization; for 13C polarization achieved (maximal): best value after calibration
Method: A number of strategies have been employed to quantify the extent of hyperpolarization [Association N.E.M. Determination of signal-to-noise ratio (SNR) in diagnostic magnetic resonance imaging. NEMA Standards, Publication MS 1-2001 (2001)]. In the present application, the following convention was applied. The signal enhancement (ηobserved) achieved by hyperpolarization was quantified in respect to the signal of a thermally polarized sample (100% ethanol, 188 mM of natural abundance ^13C at each site (Eq. 7)). The signal intensities were determined by numerical integration (xWINNMR software, Bruker Biospin, Germany)
[formula] (where IHP, Iref, CHP and Cref are integral intensities and molar concentrations of hyperpolarized and reference samples, respectively).
The decay of ^13C polarization caused by longitudinal relaxation (T1) of the hyperpolarized sample during the delivery to the detection system was determined (FIG. 15). This allows for the determination of the nascent signal enhancement (Eq. 8), and nascent level of achieved polarization (Eq. 9).
Unless otherwise indicated, PHP^t=0 and η^t=0 are reported in the work presented, using a ^13C polarization of PBoltzmann=0.00041% or 4.1 ppm at 298K and 4.7 T. T1 values for the […] reagent concerned in calibration and quality assurance (“QA”) were determined directly. A series of small angle (α≈8°) FID experiments was employed to probe the decay of the magnetization of the hyperpolarized agents (small excitation angle approximation, SEA). The T1 values were extracted by the fit of Equation 10 (Eq. 10) to the data points, taking into account the loss of magnetization caused by the excitation pulses.
Delivering hyperpolarized sample and triggered detection in the NMR scanner were further optimized. The polarizer was moved to the in vivo suite, where it was positioned carefully 7.63 m+0.5 cm from a small-animal horizontal bore, high field MRI (4.7T Bruker MRI scanner). An automated system was implemented, whereby the hyperpolarized solution was driven by remaining gas pressure in the reactor, through polyethelene (PE) tubing from the polarizer to an NMR-tube in a dual-tuned ^1H/^13C solenoid coil in the MR scanner; where after a precise interval (33 seconds) acquisition was triggered. The solution was then drained to permit successive experiments without coil repositioning.
Peak amplitude was quantified by comparison with the spectrum of ethanol (FIG. 16), using the equations described herein.

[2] = T1 decay of hyperpolarization (small angle FID series); type: physicochemical
[3] = 13C spin storage followed by refocused INEPT polarization transfer to 1H; type: physicochemical; conditions: for initial 13C polarization: 2.4 mL sample, polarizer at 1.76 mT; for T1 during 13C spin storage: FIG. 20 samples, […] succinate / 2.9 mM TFPP; for 13C polarization after storage: after 70 s (succinate) or 24 s (TFPP), 12° excitation pulse; for 13C polarization after storage / net 1H NMR signal enhancement / final 13C signal enhancement: 4.7 T; for net 1H NMR signal enhancement: after refocused INEPT; for final 13C signal enhancement: after storage; for increase of overall sensitivity by proton detection: factor versus hyperpolarized 13C detection; for polarization transfer efficiency 13C to 1H: refocused INEPT
Text: Specifically, the present subject matter hyperpolarized the ^13C site of two well studied molecules, 1-^13C-succinate-d2 and 2,2,3,3-tetrafluoropropyl 1-^13C-propionate-d3 (TFPP), by […].
Hyperpolarization was then kept on ^13C for 70 s. During this time, the polarized sample was transferred from a low magnetic field polarizer operating at 1.76 mT to 4.7 T animal MR scanner. […] Then the refocused INEPT pulse sequence^10 with τINEPT=34 ms and τrefocus=32 ms (FIG. 19) was used to transfer polarization from ^13C to protons within 1-^13C-succinate-d2 (FIG. 20A and FIG. 20B). […] The delays of the refocused INEPT were τINEPT=20 ms and τrefocus=16 ms.

rat brain = conditions: rapid ante-grade injection into common carotid artery, 1 mL, overlaid on 1H MRI

| SMILES | initial 13C polarization [3] [%] | T1 during 13C spin storage [3] [s] | 13C polarization after storage [3] [%] | net 1H NMR signal enhancement [3] | final 13C signal enhancement [3] | increase of overall sensitivity by proton detection [3] | polarization transfer efficiency 13C to 1H [3] | also measured |
| --- | --- | --- | --- | --- | --- | --- | --- | --- |
| O=C(O)CCC(=O)O [1-^13C-SUCC-d2,3, 1-^13C-succinate-d2,3] | 10.7 | 105 | 5.5 | 1,350 fold | 13,500 fold | 6.5 | 41% | effect of concentration on level of hyperpolarization ([1]; 1.65-2.89 mM in water, 0.96-2.93 mM in D2O): No effect; 13C signal enhancement at the point of measurement ([1]; 4.7 T, 33 s after production): 15,900 fold; PHP^t=0 average nascent polarization, stated in H2O ([1]; 16 experiments, in H2O before B1 calibration as printed): 15.3 ±1.9%; polarization at the point of measurement in water ([1]; H2O, mean delay 33 s): 5.4 ±1.3%; 13C signal enhancement (nascent) [1]: 49,000 fold and 37,400 ±4,600 fold; 13C signal enhancement (nascent) ([1]; listed as 13C succinate): 47,000 fold; 13C polarization achieved (maximal) ([1]; listed as 1-^13C succinate): 18%; 13C polarization achieved (maximal) ([1]; listed as 13C succinate): 19%; T1 of hyperpolarized 13C signal in D2O ([2]; D2O, pH 3, B0=4.7 T, N=4): 40 ± 2 s; T1 of hyperpolarized 13C signal in H2O ([2]; H2O, pH 3, B0=4.7 T, N=3, 1-3 mM SUC, 2.5 mM catalyst): 27 ± 3 s; T1 when buffered to physiological pH ([2]; buffered to pH 7 immediately before detection, preliminary): ~50 s; distribution of 13C image signal in vivo (rat brain): appeared in the anatomical distribution coincident with the rat brain |
| CC[13C](=O)OCCO [HEP, reference compound] | – | – | – | – | – | – | – | T1 decay time in D2O ([2]; D2O, pH 7, B0=4.7 T): 70 s; T1 decay time in H2O ([2]; H2O, pH 7, B0=4.7 T): 50 s |
| [2H]C([2H])C([2H])[13C](=O)OCC(F)(F)C(F)F (stereo not shown) [TFPP, 2,2,3,3-tetrafluoropropyl 1-^13C-propionate-d3] | 14 | 67 | 9.5 | 2,930 fold | 23,300 fold | 7.9 | 50% and 51% | – |
